The experiment has as its system human macrophage cell-line MonoMac-6 (MM6). Description: Inhibition of macrophage proliferation (MM6 cell proliferation, WST-1 reagent). The experiment is classed as cell-based. To be noted: 46 hours, mean, n=5. On the procedure: Cells from the human macrophage cell-line MonoMac-6 (MM6) (Ziegler-Heitbrock et al, Int. J. Cancer, 41, 456 (1988)) were cultured (37° C./5% CO2) in RPMI-1640 medium supplemented with 1 mM sodium pyruvate, 1×nonessential amino acids, 10 μg/mL insulin, 1 mM oxalacetic acid, 100 units/mL penicillin, 100 μg/mL streptomycin and 10% (v/v) fetal bovine serum. At the start of the experiment, MM6 cells were seeded in 96-well plates at a density of 1>10^5 cells/mL (100 μL per well). Proliferation of the MM6 cells was measured using the Cell Proliferation Reagent WST-1 (Roche Diagnostics Scandinavia AB, Bromma, Sweden) or by cell counting using a microscope. The WST-1 reagent is designed to be used for spectrophotometric quantification of e.g. cell growth in proliferation assays and was used according to the manufacturers' instructions. The wavelength for measuring absorbance was 450 nm. Stock solutions of pemirolast (potassium salt; purchased from American Custom Chemicals Corporation, San Diego, USA) were made in sterile saline. Pioglitazone (HCl salt; purchased from AK Scientific, Inc., Mountain View, Calif., USA) was dissolved in DMSO and then diluted in sterile saline leading to final DMSO concentrations in the MM6 incubations of 0.003%, 0.01% and 0.03% for the final pioglitazone concentrations of 0.1 μM, 0.3 μM and 1 μM, respectively. The effects of treatment with pioglitazone (alone and in combination) on MM6 proliferation were compared with control treatments containing DMSO at concentrations corresponding to the DMSO concentrations used in the different respective pioglitazone treatments. Untreated MM6 cells increased from 1×10^5 cells/mL at the start of the experiment to 1.4×10^5±0.06×10^5 cells/mL and 2.3×10^5±0.10×10^5 cells/mL after 24 and 48 hours, respectively (mean values±sem, n=4 for each of the three time-points). Pemirolast and/or pioglitazone were added at the start of the experiments and 46 hours later the effects of the drugs on MM6 cell proliferation were studied using the WST-1 reagent described above. The WST-1 reagent was added at 44 hours after start of the experiments and the average absorbance of untreated control cells exposed to the WST-1 reagent was 0.89 (n=5).

Each structure is given as a SMILES string.

For `CCc1ccc(CCOc2ccc(CC3SC(=O)NC3=O)cc2)nc1` (stereo not drawn) [pioglitazone], the “MM6 proliferation, of the proliferation of untreated control cells” value worked out at 91% (0.1 μM pioglitazone, control with DMSO); 96% (0.3 μM pioglitazone, control with DMSO); 88% (1 μM pioglitazone, control with DMSO).
For the compound `Cc1cccn2c(=O)c(-c3nnn[nH]3)cnc12` [pemirolast], the “MM6 proliferation, of the proliferation of untreated control cells” value is, setting by setting: (10 μM pemirolast) 101%; (30 μM pemirolast) 124%; (100 μM pemirolast) 102%.

The values are drawn from patent publication US20100184783A1, “COMBINATION FOR USE IN THE TREATMENT OF INFLAMMATORY ATHEROSCLEROSIS COMPRISING A MAST CELL INHIBITOR AND A PPAR GAMMA AGONIST” (priority 2007, published 2010).
